Measurements reported in the supplement of paper PMC4862054.

Columns and labels:
Details in all cases: incubation time: 72 h
[1] = tested on: BT-474; experiment: normalised response (% of control), CellTiter-Glo; higher = more viable cells (100 = DMSO, 0 = benzethonium chloride kill control)
Summary of the method: (§1)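 Each entry is the normalised signal at a single concentration within a series. The series comprised 5 concentrations in 10-fold steps over a compound-specific 10,000-fold range, placed in 384-well plates into which breast cancer cell lines were seeded as 20 µl suspension and incubated 72 h. CellTox Green (485/520 nm) fluorescence and then CellTiter-Glo luminescence were read, with signals normalised per plate to 0.1 % DMSO (100) and a positive kill control (0).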

[2] = tested on: BT-549; experiment: as above
Summary of the method: as §1

[3] = tested on: CAL-120; experiment: as above
Summary of the method: as §1

[4] = tested on: CAL-148; experiment: as above
Summary of the method: as §1

[5] = tested on: CAL-51; experiment: as above
Summary of the method: as §1

[6] = tested on: CAL-85-1; experiment: as above
Summary of the method: as §1

[7] = tested on: DU-4475; experiment: as above
Summary of the method: as §1

[8] = tested on: HCC1143; experiment: as above
Summary of the method: as §1

[9] = tested on: HCC1599; experiment: as above
Summary of the method: as §1

[10] = tested on: HCC1937; experiment: as above
Summary of the method: as §1

[11] = tested on: HDQ-P1; experiment: as above
Summary of the method: as §1

[12] = tested on: Hs578T; experiment: as above
Summary of the method: as §1

[13] = tested on: MCF-10A; experiment: as above
Summary of the method: as §1

[14] = tested on: MDA-MB-231; experiment: as above
Summary of the method: as §1

[15] = tested on: MDA-MB-436; experiment: as above
Summary of the method: as §1

[16] = tested on: MDA-MB-453; experiment: as above
Summary of the method: as §1

[17] = tested on: MDA-MB-468; experiment: as above
Summary of the method: as §1

[18] = tested on: MFM-223; experiment: as above
Summary of the method: as §1

[19] = tested on: SK-BR-3; experiment: as above
Summary of the method: as §1

[20] = tested on: BT-474; experiment: normalised viability (% of control), CellTiter-Blue; higher = more viable cells (100 = DMSO, 0 = benzethonium chloride kill control)
Method: (§2)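 DSRT, CellTiter-Blue viability, 72 h incubation. Signal is normalised to DMSO and benzethonium chloride controls. Value is the normalised response at dose 1.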

[21] = tested on: BT-549; experiment: as above
Method: as §2

[22] = tested on: CAL-120; experiment: as above
Method: as §2

[23] = tested on: CAL-148; experiment: as above
Method: as §2

[24] = tested on: CAL-51; experiment: as above
Method: as §2

[25] = tested on: CAL-85-1; experiment: as above
Method: as §2

[26] = tested on: DU-4475; experiment: as above
Method: as §2

[27] = tested on: HCC1143; experiment: as above
Method: as §2

[28] = tested on: HCC1599; experiment: as above
Method: as §2

[29] = tested on: HCC1937; experiment: as above
Method: as §2

[30] = tested on: HDQ-P1; experiment: as above
Method: as §2

[31] = tested on: Hs578T; experiment: as above
Method: as §2

[32] = tested on: MDA-MB-231; experiment: as above
Method: as §2

[33] = tested on: MDA-MB-436; experiment: as above
Method: as §2

[34] = tested on: MDA-MB-453; experiment: as above
Method: as §2

[35] = tested on: MDA-MB-468; experiment: as above
Method: as §2

[36] = tested on: MFM-223; experiment: as above
Method: as §2

[37] = tested on: SK-BR-3; experiment: as above
Method: as §2

Row | Structure (SMILES) | normalised response [1] | normalised response [2] | normalised response [3] | normalised response [4] | normalised response [5] | normalised response [6] | normalised response [7] | normalised response [8] | normalised response [9] | normalised response [10] | normalised response [11] | normalised response [12] | normalised response [13] | normalised response [14] | normalised response [15] | normalised response [16] | normalised response [17] | normalised response [18] | normalised response [19] | normalised viability [20] | normalised viability [21] | normalised viability [22] | normalised viability [23] | normalised viability [24] | normalised viability [25] | normalised viability [26] | normalised viability [27] | normalised viability [28] | normalised viability [29] | normalised viability [30] | normalised viability [31] | normalised viability [32] | normalised viability [33] | normalised viability [34] | normalised viability [35] | normalised viability [36] | normalised viability [37]
1 | OC[C@H]1O[C@@H](n2cnc3c2N=CNC[C@H]3O)C[C@@H]1O [Pentostatin] (1 nM) | 98.7% | 93.8% | 96.7% | 104% | 111% | 94.8% | 103% | 103% | 121% | 100% | 100% | 98.4% | 107% | 98.8% | 83.4% | 107% | 101% | 99.8% | 108% | 82.4% | 91.7% | 114% | 118% | 89.3% | 99.5% | 102% | 96.9% | 114% | 81.8% | 108% | 109% | 96.6% | 99% | 110% | 105% | 93.2% | 86.8%
2 | N#CC[C@H](C1CCCC1)n1cc(-c2ncnc3[nH]ccc23)cn1 [Ruxolitinib] (1 nM) | 96.8% | 102% | 93.8% | 92.8% | 120% | 101% | 91.9% | 93.1% | 93.5% | 92.8% | 93.5% | 95.8% | 82% | 102% | 86.7% | 94.4% | 101% | 90.1% | 83.5% | 98.2% | 89.9% | 106% | 94.5% | 89.4% | 114% | 104% | 101% | 101% | 102% | 85.7% | 102% | 82.5% | 96.9% | 101% | 96.6% | 98.8% | 101%
3 | C=CC[C@@H]1/C=C(\C)C[C@H](C)C[C@H](OC)[C@H]2O[C@@](O)(C(=O)C(=O)N3CCCC[C@H]3C(=O)O[C@H](/C(C)=C/[C@@H]3CC[C@@H](O)[C@H](OC)C3)[C@H](C)[C@@H](O)CC1=O)[C@H](C)C[C@@H]2OC [Tacrolimus] (1 nM) | 101% | 96.6% | 98% | 103% | 93.1% | 97.8% | 102% | 93.9% | 103% | 98.8% | 118% | 99.1% | 106% | 99.3% | 103% | 110% | 98.7% | 98.5% | 109% | 71% | 109% | 111% | 110% | 105% | 98.6% | 98.5% | 109% | 99.3% | 102% | 114% | 106% | 102% | 119% | 107% | 110% | 116% | 98.2%
4 | C=CCNC1=C2C[C@@H](C)C[C@H](OC)[C@H](O)[C@@H](C)/C=C(\C)[C@H](OC(N)=O)[C@@H](OC)/C=C\C=C(/C)C(=O)NC(=CC1=O)C2=O [Tanespimycin] (1 nM) | 91.9% | 105% | 92.5% | 92.6% | 104% | 107% | 99% | 95.8% | 102% | 94.7% | 99.4% | 104% | 99.1% | 98.9% | 86.8% | 104% | 107% | 94% | 96.8% | 97.3% | 113% | 77.1% | 115% | 115% | 92.6% | 118% | 87.4% | 94.7% | 86.4% | 105% | 101% | 98.2% | 110% | 108% | 103% | 90.8% | 93%
5 | C[C@]1(c2nc3c(C(N)=O)cccc3[nH]2)CCCN1 [Veliparib] (1 nM) | 107% | 104% | 97.3% | 103% | 92.2% | 111% | 106% | 101% | 96.4% | 96.8% | 101% | 101% | 97% | 102% | 91.4% | 109% | 111% | 101% | 102% | 89.8% | 112% | 68.6% | 101% | 112% | 78.4% | 99% | 79.1% | 83.5% | 77.1% | 75.1% | 94.8% | 94.3% | 93.7% | 93.3% | 97.7% | 94.1% | 96.9%
6 | CC[C@]1(O)C[C@@H]2CN(CCc3c([nH]c4ccccc34)[C@@](C(=O)OC)(c3cc4c(cc3OC)N(C)[C@H]3[C@@](O)(C(=O)OC)[C@H](OC(C)=O)[C@]5(CC)C=CCN6CC[C@]43[C@@H]65)C2)C1 [Vinblastine] (0.1 nM) | 96.2% | 102% | 95.9% | 96.6% | 103% | 97.4% | 101% | 99% | 106% | 93.9% | 99.4% | 99.5% | 101% | 94.9% | 95.8% | 103% | 98.8% | 93.1% | 100% | 87.9% | 96.6% | 82.1% | 92.5% | 114% | 85.8% | 104% | 78.6% | 90.7% | 97.1% | 102% | 103% | 83.1% | 103% | 98.5% | 98.8% | 90% | 85.8%
7 | CS(=O)(=O)c1ccc(C(=O)Nc2ccc(Cl)c(-c3ccccn3)c2)c(Cl)c1 [Vismodegib] (1 nM) | 90.9% | 93.1% | 92.8% | 103% | 120% | 99.2% | 98.9% | 94.3% | 101% | 92.3% | 96.7% | 95.9% | 94% | 95.5% | 100% | 89.3% | 98.7% | 86.8% | 91.6% | 103% | 88.3% | 86.2% | 94.9% | 108% | 104% | 103% | 94.9% | 105% | 103% | 75.3% | 115% | 100% | 94.2% | 103% | 99.6% | 96% | 93.7%
